According to ChEMBL document CHEMBL1201862, “PubChem BioAssay data set” (2004):
The source made the active and inactive calls.

Tests used:
[1] = target: T1, Caspase-3 (Homo sapiens, UniProt P42574); format: functional;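 note: Dose-response selectivity test against caspase-3 for candidate inhibitors of sentrin-specific proteases (SENPs)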
T1 sequence (P42574 whole entry): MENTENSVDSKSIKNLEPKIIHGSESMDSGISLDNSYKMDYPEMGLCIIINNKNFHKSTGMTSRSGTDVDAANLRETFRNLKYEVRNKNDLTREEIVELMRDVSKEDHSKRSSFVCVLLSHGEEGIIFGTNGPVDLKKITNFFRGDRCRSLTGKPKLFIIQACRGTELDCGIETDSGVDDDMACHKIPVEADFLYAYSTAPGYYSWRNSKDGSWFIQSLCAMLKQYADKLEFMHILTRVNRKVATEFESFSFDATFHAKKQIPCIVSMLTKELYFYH

[2] = target: T2, Sentrin-specific protease 8 (Homo sapiens, UniProt Q96LD8); format: functional
T2 sequence (Q96LD8 whole entry): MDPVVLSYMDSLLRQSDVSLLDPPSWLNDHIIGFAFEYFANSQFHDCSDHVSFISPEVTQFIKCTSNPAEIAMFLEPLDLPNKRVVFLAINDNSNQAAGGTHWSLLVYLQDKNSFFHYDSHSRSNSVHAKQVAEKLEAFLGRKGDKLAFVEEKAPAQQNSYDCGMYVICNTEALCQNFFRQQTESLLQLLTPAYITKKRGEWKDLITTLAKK

[3] = target: T3, Protein RecA (Mycobacterium tuberculosis, UniProt P9WHJ3); test: Fluorescence Cell-Free Homogeneous Dose Retest to Identify Inhibitors of RecA-Intein Splicing Activity. [Related pubchem assays (depositor defined):AID2097, AID2223, AID489010, AID492950]; format: functional
T3 sequence (P9WHJ3 whole entry): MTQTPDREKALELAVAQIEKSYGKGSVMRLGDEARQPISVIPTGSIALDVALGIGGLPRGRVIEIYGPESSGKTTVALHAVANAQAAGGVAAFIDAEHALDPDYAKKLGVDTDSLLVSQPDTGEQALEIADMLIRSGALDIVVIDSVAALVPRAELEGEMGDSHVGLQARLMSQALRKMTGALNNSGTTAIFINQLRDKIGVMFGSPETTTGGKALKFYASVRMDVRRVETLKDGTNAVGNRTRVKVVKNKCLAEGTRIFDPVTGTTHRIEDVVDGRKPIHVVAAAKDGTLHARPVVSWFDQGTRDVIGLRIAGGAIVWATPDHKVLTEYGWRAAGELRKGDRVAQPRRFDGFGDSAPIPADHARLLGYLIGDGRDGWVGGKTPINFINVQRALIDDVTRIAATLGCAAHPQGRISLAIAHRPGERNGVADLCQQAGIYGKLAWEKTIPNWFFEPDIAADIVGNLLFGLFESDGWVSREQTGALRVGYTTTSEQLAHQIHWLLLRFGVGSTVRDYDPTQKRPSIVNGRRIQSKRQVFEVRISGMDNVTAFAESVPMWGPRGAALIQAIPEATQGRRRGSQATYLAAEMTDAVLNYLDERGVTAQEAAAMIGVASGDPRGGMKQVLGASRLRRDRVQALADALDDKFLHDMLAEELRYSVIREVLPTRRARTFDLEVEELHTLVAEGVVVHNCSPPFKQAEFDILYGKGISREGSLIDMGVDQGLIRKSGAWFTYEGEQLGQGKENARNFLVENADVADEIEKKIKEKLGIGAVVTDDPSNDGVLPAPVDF

[4] = target: T2, Sentrin-specific protease 8; format: functional; remark: listed apart in the source
[5] = target: T4, Aminopeptidase N (Plasmodium falciparum FcB1/Columbia, UniProt O96935); test: P. falciparum M1AAP inhibitors, biochemical, fluorogenic H-Leu-NHMec substrate, 1536-well (AID 1445); set-up: species or system Plasmodium falciparum 3D7, 3D7
T4 sequence (O96935 whole entry): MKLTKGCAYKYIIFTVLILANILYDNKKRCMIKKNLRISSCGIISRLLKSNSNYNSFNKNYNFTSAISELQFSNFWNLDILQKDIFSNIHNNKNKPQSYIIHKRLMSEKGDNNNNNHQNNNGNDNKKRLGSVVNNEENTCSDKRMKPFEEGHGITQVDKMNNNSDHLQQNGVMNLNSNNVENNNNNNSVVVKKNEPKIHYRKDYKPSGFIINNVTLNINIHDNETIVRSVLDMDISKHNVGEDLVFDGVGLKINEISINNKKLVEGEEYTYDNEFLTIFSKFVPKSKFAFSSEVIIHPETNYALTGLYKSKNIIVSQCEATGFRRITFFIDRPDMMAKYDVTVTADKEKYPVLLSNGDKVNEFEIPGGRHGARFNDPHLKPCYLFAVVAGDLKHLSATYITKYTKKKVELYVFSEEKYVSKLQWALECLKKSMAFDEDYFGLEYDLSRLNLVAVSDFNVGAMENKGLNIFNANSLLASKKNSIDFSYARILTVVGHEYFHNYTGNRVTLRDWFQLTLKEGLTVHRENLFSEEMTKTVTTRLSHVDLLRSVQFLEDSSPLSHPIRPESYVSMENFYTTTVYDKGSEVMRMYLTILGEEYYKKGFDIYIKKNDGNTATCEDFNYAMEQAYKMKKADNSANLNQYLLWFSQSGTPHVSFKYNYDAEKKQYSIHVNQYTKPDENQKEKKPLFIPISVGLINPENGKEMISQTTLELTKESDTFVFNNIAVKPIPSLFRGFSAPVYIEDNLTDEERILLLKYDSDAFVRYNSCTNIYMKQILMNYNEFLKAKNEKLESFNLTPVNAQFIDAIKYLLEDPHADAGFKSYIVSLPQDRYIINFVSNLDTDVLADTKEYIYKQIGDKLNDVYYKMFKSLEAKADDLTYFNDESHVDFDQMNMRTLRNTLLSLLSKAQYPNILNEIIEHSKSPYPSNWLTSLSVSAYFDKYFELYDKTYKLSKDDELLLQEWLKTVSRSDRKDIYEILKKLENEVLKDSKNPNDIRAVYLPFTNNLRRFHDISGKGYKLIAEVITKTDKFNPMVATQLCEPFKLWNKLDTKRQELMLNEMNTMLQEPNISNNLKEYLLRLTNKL

[6] = target: Large T antigen (Simian virus 40, UniProt P03070); format: functional, Betapolyomavirus macacae;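 note: Confirmatory-stage PubChem screen for compounds that inhibit SV40 T antigen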
Sequence of Large T antigen (P03070 whole entry): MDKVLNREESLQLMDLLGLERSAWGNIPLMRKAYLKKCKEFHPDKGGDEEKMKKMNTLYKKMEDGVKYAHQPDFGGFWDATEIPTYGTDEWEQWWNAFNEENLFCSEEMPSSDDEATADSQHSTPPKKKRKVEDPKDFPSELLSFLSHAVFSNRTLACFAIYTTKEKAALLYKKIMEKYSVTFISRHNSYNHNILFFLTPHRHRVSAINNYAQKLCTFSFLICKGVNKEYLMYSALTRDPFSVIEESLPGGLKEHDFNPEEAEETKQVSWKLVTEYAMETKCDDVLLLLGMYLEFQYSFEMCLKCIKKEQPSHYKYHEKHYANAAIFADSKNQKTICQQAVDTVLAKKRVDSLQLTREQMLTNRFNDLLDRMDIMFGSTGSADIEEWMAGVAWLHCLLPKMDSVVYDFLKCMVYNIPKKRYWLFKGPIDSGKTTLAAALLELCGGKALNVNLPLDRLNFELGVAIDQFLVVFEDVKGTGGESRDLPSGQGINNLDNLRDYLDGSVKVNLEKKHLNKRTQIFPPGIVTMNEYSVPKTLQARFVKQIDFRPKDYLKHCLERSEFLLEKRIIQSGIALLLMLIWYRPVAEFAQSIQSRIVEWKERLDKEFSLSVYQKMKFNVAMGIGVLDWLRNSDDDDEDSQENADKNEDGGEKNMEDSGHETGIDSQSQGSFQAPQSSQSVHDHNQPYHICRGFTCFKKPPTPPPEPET

[7] = target: Small ubiquitin-related modifier 2 (Homo sapiens, UniProt P61956); test: SUMO2–SIM peptide binding inhibitors, dose response, selectivity assay for SUMO1 interaction inhibitor project, biochemical, fluorescence polarization, uHTS hits (AID 624385); format: functional; conditions: read-out: IC50_Mean
Sequence of Small ubiquitin-related modifier 2 (P61956 whole entry): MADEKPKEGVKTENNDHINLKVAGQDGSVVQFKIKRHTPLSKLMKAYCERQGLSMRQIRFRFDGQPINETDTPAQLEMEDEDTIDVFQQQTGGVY

[8] = target: Small ubiquitin-related modifier 1 (Homo sapiens, UniProt P63165); test: inhibitors of SUMO1 peptide binding, dose response, biochemical, fluorescence polarization, uHTS hits (AID 624382); format: functional; conditions: read-out: IC50_Mean
Sequence of Small ubiquitin-related modifier 1 (P63165 whole entry): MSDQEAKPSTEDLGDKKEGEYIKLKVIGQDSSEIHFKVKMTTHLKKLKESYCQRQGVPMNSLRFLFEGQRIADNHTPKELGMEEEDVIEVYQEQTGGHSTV

[9] = Luminescence Cell-Based Dose Response HTS to Identify Activators of Luciferase Translation or Activity in H4 […] Cells. [Related pubchem assays: 1829 (Project Summary), 1814 (Primary HTS)]; format: functional
[10] = Luminescence Cell Based Dose Confirmation HTS to Identify Activators of 5'UTR Stem-Loop Driven Alpha-Synuclein mRNA Translation in H4 Neuroglioblastoma Cells. [Related pubchem assays (depositor defined):AID1813, AID1829]; format: functional; conditions: Homo sapiens

| SMILES | IC50 [1] | IC50 [2] | EC50 [3] | IC50 [4] | IC50 [5] | IC50 [6] | IC50 [7] | IC50 [8] | EC50 [9] | EC50 [10] |
| --- | --- | --- | --- | --- | --- | --- | --- | --- | --- | --- |
| COc1cc(C(=O)c2nccc3cc(OC)c(OC)cc23)c([N+](=O)[O-])cc1OC | 31.9 µM (active) | 4.97 µM (active) | 0.16 µM (active) | 0.535 µM (active) |  |  |  |  |  |  |
| N#Cc1c(O)nc(SCC(=O)N2c3ccccc3Sc3ccccc32)nc1-c1ccccc1 |  |  | 9.18 µM (active) |  | 11.2 µM (active) | 52.7 µM (active) | 10.9 µM (active) | 21 µM (inactive) |  |  |
| c1ccc2c(Nc3nnc(-c4ccncc4)s3)cccc2c1 | 18.5 µM (active) | > 100 µM (inactive) |  |  |  |  |  |  | > 120 µM (not active) | 2.02 µM (active) |
| N=C1S/C(=C\c2ccc(-c3ccccc3C(=O)O)o2)C(=O)N1c1ccc2c(c1)OCO2 |  |  |  |  | 10.3 µM (active) |  |  |  |  |  |
